# Reference: ChEMBL document CHEMBL1201862, “PubChem BioAssay data set” (2004)
# Calls of active or inactive are those of the source.
# Assays:
# [1] = target: Mitogen-activated protein kinase kinase kinase kinase 4 (Homo sapiens, UniProt O95819); assay type: functional
# [2] = target: Serine/threonine-protein kinase pim-3 (Homo sapiens, UniProt Q86V86); assay type: functional;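 also: value obtained as one member of a broad kinase panel profiling effort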
# [3] = target: Glycogen synthase kinase-3 beta (Homo sapiens, UniProt P49841); assay type: functional;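 also: value comes from a broad kinome profiling panel, with GSK3B as the panel member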
# [4] = target: Serine/threonine-protein kinase BRSK1 (Homo sapiens, UniProt Q8TDC3); assay type: functional;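 also: measured within a kinome-wide kinase panel, with the target listed as KIAA1811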
# [5] = target: Mitogen-activated protein kinase kinase kinase kinase 5 (Homo sapiens, UniProt Q9Y4K4); assay type: functional;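 also: measured as one member of a kinome-spanning kinase panel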
# [6] = target: Serine/threonine-protein kinase pim-1 (Homo sapiens, UniProt P11309); assay type: functional
# [7] = target: Peroxisome proliferator-activated receptor gamma/Nuclear receptor coactivator 3 (Homo sapiens, UniProt P37231); assay: TR-FRET dose response biochemical High Throughput Screening assay for agonists of the steroid receptor coactivator 3 (SRC-3) recruitment by the peroxisome proliferator-activated receptor gamma (PPAR gamma): non-selective agonists. [Related pubchem assays: 1301 (Confirmation screen.), 1048 (Primary screen.)]; assay type: functional
# [8] = target: Peroxisome proliferator-activated receptor gamma/Nuclear receptor coactivator 2 (Homo sapiens, UniProt P37231); assay: (§1) TR-FRET dose response biochemical High Throughput Screening assay for agonists of the steroid receptor coactivator 2 (SRC-2) recruitment by the peroxisome proliferator-activated receptor gamma (PPAR gamma): non-selective agonists. [Related pubchem assays: 1297, 1032 ]; assay type: functional
# [9] = target: Peroxisome proliferator-activated receptor gamma/Nuclear receptor coactivator 1 (Homo sapiens, UniProt P37231); assay: as §1, with “1 (SRC-1)” for “2 (SRC-2)”, “assays (depositor defined):AID1300, AID1808, AID504735, AID631]” for “assays: 1297, 1032 ]”; assay type: protein assay
# Phospholipase A2 = Phospholipase A2 (Homo sapiens, UniProt P04054); assay type: functional;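 also: confirmatory dose-response counterscreen on phospholipase A2, testing hits that came from an ultra-high-throughput screen for ATG4B inhibitors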
# Cysteine protease ATG4B = Cysteine protease ATG4B (Homo sapiens, UniProt Q9Y4P1); assay type: functional;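 also: Fluorescence-based dose-response confirmation assay measuring inhibition of ATG4B activity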
# Mu-type opioid receptor [10] = target: T1, Mu-type opioid receptor (Homo sapiens, UniProt P35372); assay: mu opioid receptor blockers – image-based, SAR follow-up (AID 2420); assay type: functional;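 also: compounds added before stimulation of receptor with agonist DAMGO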
# [11] = target: T2, Kappa-type opioid receptor (Homo sapiens, UniProt P41145); assay: SAR analysis of small molecule agonists of the kappa opioid receptor via a luminescent beta-arrestin assay. [Related pubchem assays (depositor defined):AID1777, AID1786, AID1966, AID2133, AID2136, AID2348, AID2352, AID2357, AID2359, AID2370, AID2420, AID2478, AID2491, AID2492, AID2493, AID2497, AID2498, AID2500, AID449737, AID488822, AID488842]; assay type: functional
# [12] = target: T2, Kappa-type opioid receptor; assay: kappa opioid receptor blockers, image-based, SAR follow-up (AID 2348); assay type: functional
# [13] = target: T3, Delta-type opioid receptor (Homo sapiens, UniProt P41143); assay: DOR agonists, SAR follow-up, image-based (AID 2370); assay type: functional
# [14] = target: T3, Delta-type opioid receptor; assay: delta opioid receptor blockers – image-based, SAR follow-up (AID 2357); assay type: functional
# Mu-type opioid receptor [15] = target: T1, Mu-type opioid receptor; assay: mu opioid receptor activators, image-based, SAR follow-up (AID 2352); assay type: functional
# [16] = target: T2, Kappa-type opioid receptor; assay: kappa opioid receptor activation potency – imaging, image-based, SAR follow-up (AID 2359); assay type: functional
# [17] = target: Lysine-specific demethylase 4C (Homo sapiens, UniProt Q9H3R0); assay: inhibition of JMJD2C H3K9me3 demethylation – biochemical, DELFIA europium, cherry-picked samples, dose response (AID 488835); assay type: functional
# [18] = viability of uninfected HEp-2 cells – cell-based, HTS, cytotoxicity control for RSV inhibitor project, dose response (AID 2410); assay type: functional; conditions: human respiratory syncytial virus
# [19] = target: T4, Endoribonuclease toxin MazF (Escherichia coli K-12, UniProt P0AE70); assay: activation of MazEF endoribonuclease cleavage – biochemical, fluorescence, single-stranded RNA substrate, uHTS hits, dose response (AID 588481); assay type: functional
# T4 sequence (P0AE70 whole entry): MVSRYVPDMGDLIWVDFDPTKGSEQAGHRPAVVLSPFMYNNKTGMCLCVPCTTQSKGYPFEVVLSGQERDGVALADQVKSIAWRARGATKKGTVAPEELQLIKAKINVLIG
# Troponin, cardiac muscle = Troponin, cardiac muscle (Homo sapiens, UniProt P19429+P45379+P63316); assay: Fluorescence-based biochemical high throughput dose response assay for activators of the calcium sensitivity of cardiac Regulated Thin Filaments (RTF). [Related pubchem assays (depositor defined):AID493008, AID493018, AID504382, AID504383]; assay type: protein-complex assay
# [20] = target: T4, Endoribonuclease toxin MazF; assay: substrate-only fluorescence increase artefacts – biochemical, single-stranded RNase substrate, counter-screen for MazEF activator project, dose response (AID 588502); assay type: functional
# T2 sequence (P41145 whole entry): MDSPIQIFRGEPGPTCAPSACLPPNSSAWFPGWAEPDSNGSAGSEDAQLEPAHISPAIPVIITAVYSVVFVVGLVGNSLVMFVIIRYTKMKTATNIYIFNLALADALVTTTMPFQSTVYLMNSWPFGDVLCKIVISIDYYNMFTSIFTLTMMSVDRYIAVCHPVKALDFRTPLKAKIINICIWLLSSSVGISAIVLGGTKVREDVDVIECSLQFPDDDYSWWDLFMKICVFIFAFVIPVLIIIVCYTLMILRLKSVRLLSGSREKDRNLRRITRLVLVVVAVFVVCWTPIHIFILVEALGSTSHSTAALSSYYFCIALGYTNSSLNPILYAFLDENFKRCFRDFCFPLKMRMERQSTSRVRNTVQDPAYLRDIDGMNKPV
# T1 sequence (P35372 whole entry): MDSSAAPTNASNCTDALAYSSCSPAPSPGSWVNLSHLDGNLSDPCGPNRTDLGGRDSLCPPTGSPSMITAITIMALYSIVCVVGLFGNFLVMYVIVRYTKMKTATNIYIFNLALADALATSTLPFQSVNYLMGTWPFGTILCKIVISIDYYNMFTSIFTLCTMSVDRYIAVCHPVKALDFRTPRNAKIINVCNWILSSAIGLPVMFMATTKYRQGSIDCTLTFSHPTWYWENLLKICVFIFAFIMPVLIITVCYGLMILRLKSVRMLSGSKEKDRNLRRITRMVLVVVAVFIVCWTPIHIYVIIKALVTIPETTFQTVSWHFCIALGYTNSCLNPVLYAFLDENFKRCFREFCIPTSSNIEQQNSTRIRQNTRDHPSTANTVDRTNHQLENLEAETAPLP
# Chain of Lysine-specific demethylase 4C (Q9H3R0 whole entry): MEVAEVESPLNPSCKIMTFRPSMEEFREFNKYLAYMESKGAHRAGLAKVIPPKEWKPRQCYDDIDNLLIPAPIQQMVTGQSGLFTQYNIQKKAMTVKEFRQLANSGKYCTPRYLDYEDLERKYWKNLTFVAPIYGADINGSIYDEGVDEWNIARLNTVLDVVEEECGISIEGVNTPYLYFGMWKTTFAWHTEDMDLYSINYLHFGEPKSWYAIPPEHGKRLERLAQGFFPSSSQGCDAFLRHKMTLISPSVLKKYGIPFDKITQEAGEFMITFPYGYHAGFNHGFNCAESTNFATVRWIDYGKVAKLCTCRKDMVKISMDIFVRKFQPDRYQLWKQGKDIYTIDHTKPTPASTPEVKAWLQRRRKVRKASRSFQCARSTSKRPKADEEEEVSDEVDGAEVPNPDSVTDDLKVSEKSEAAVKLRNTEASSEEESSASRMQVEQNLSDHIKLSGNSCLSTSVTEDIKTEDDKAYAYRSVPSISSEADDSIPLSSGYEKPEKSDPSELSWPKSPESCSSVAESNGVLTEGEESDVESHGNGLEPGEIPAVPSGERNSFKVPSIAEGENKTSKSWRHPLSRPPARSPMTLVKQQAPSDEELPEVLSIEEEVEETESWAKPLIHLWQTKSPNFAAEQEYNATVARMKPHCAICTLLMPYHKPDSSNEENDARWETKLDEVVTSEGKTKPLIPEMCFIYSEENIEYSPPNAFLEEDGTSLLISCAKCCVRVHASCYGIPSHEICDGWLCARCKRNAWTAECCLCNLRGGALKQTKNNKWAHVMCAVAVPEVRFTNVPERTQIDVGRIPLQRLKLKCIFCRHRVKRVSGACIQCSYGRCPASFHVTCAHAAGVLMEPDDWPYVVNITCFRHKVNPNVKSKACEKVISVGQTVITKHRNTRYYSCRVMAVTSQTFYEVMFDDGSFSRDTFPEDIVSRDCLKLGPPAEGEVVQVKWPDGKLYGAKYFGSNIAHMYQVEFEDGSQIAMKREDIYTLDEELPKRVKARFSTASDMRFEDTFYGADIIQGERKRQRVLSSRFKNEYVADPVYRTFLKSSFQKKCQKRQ
# T3 sequence (P41143 whole entry): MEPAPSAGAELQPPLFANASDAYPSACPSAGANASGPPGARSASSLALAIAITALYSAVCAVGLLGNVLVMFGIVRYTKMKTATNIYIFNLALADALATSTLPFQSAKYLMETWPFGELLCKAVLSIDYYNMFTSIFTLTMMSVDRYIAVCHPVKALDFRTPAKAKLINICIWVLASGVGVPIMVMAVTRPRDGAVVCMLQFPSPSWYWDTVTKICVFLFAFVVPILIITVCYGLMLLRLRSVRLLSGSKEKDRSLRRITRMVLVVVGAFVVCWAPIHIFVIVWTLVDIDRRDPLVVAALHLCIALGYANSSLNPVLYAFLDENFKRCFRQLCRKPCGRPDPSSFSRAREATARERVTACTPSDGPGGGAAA
# Chain of Serine/threonine-protein kinase BRSK1 (Q8TDC3 whole entry): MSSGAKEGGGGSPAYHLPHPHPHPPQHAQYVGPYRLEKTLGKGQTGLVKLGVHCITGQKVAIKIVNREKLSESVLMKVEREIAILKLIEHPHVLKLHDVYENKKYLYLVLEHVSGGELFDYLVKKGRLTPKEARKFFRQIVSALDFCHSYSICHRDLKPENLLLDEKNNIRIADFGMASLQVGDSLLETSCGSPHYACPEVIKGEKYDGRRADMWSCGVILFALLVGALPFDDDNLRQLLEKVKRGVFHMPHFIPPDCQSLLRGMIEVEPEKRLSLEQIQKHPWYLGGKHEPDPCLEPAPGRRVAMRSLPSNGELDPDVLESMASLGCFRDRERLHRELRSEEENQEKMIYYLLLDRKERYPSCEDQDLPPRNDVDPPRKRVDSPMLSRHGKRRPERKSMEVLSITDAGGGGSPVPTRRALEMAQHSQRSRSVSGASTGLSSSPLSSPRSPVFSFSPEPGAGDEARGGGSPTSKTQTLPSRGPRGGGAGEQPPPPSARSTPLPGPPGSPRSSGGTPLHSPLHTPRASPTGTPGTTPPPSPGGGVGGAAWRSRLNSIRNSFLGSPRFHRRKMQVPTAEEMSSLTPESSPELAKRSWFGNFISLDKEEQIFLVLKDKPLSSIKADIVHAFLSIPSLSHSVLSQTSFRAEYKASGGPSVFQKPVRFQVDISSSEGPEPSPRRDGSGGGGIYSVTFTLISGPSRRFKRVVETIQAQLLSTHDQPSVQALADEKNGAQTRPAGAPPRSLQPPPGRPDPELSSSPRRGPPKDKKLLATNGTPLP
# Chain of Phospholipase A2 (P04054 whole entry): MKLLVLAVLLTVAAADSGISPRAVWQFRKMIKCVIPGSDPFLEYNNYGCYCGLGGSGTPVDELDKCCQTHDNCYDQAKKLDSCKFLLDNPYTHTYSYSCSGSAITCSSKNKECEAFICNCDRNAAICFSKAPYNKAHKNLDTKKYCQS
# Chain of Glycogen synthase kinase-3 beta (P49841 whole entry): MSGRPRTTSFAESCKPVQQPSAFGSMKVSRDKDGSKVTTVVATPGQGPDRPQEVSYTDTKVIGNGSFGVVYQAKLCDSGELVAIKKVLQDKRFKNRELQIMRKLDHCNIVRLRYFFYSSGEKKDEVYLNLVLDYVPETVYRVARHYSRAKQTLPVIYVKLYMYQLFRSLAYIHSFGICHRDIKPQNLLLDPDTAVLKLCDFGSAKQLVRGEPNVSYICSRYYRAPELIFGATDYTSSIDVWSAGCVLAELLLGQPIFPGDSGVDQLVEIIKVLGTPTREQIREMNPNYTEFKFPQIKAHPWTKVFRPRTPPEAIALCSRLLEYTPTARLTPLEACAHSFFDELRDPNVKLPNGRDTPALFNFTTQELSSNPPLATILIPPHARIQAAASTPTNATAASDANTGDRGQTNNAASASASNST
# Chain of Cysteine protease ATG4B (Q9Y4P1 whole entry): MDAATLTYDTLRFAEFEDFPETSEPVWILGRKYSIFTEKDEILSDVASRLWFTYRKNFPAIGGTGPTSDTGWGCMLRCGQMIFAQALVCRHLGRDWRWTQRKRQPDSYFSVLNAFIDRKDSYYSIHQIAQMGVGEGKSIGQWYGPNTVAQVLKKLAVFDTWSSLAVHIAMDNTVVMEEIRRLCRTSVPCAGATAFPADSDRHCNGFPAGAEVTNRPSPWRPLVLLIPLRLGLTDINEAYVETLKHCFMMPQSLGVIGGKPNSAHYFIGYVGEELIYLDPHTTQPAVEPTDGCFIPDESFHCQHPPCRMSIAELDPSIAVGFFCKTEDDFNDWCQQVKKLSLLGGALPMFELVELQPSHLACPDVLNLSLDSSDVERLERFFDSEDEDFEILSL
# Chain of Serine/threonine-protein kinase pim-1 (P11309 whole entry): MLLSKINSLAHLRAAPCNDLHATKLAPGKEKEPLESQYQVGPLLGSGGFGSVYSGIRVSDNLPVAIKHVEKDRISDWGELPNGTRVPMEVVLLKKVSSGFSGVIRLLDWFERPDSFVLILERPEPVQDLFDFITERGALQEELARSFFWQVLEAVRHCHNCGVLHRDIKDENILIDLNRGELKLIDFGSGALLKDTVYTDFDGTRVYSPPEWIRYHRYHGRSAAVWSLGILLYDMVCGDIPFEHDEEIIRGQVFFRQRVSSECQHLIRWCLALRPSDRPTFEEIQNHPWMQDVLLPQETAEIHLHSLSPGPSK
structure (smiles),measurement,setting,value
O=c1cc(C(F)(F)F)c2c(-c3cccc(C(F)(F)F)c3)n[nH]c2[nH]1,Ki,[1],5.01 µM (active)
same,Ki,[2],2 µM (active)
same,Ki,[3],5.01 µM (active)
same,Ki,[4],7.94 µM (active)
same,Ki,[5],5.01 µM (active)
same,Ki,[6],5.01 µM (active)
Cc1nc(-c2ccccc2)sc1-c1nc(-c2ccccc2)ncc1S(=O)(=O)c1ccccc1,EC50,[7],61.8 µM (not active)
same,EC50,[8],38.2 µM (not active)
same,EC50,[9],> 26.5 µM (inactive)
Cc1nn(Cc2c(Cl)cccc2Cl)c(C)c1NC(=O)CCCn1nc([N+](=O)[O-])c(Cl)c1C,IC50,Phospholipase A2,9.06 µM (active)
same,IC50,Cysteine protease ATG4B,9.88 µM (active)
CCCN(Cc1cc2cc(C)ccc2[nH]c1=O)C(=O)c1ccccn1,IC50,Mu-type opioid receptor [10],> 32 µM (inactive)
same,EC50,[11],> 10 µM (inactive)
same,IC50,[12],> 32 µM (inactive)
same,EC50,[13],> 32 µM (inactive)
same,IC50,[14],> 32 µM (inactive)
same,EC50,Mu-type opioid receptor [15],> 32 µM (inactive)
same,EC50,[16],> 32 µM (inactive)
CN(C)c1ccc(C(=O)OCC(=O)N2CCCC2)cc1,AC50,[17],10.6 µM (active)
O=[N+]([O-])c1ccc(N2CCCC2)c2ncccc12,CC50,[18],> 50 µM (active)
same,EC50,[19],> 99 µM (inactive)
same,EC50,"Troponin, cardiac muscle",12.1 µM (inactive)
same,EC50,[20],> 99 µM (inactive)
CC(Sc1nc2c(cc1C#N)CCCCC2)C(=O)O (centres undefined),AC50,[17],> 60 µM (inactive)
